Among the data in US5563163A, “2-saccharinylmethyl heterocyclic carboxylates useful as proteolytic enzyme inhibitors and compositions and method of use thereof” (Sterling Winthrop, Inc., priority 1995, dated 1996) are kinact/KI and Ki values, retold here.

Structures can show the parent of a compound that is named as a salt.

This experiment concerns the target T1, human leukocyte elastase (HLE) (Homo sapiens, UniProt P08246).
T1 sequence (P08246 30-267): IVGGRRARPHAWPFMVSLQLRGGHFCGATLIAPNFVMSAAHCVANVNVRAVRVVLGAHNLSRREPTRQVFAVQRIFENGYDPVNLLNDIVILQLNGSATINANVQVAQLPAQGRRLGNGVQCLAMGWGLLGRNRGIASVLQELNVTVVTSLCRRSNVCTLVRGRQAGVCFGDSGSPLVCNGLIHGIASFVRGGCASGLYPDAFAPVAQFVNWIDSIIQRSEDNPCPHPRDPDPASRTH
Kind of experiment: Inhibition of human leukocyte elastase (HLE): rate of inactivation kon and inhibition constant Ki* (= koff/kon). The format is biochemical. The conditions noted are these: for kinact/KI: "Kon × 10^-3": value is Kon multiplied by 10^-3; for Ki: Ki* calculated as koff/kon, not a truly reversible Ki. As for the experimental part:
Measurement of the inhibition constant, Ki, of a HLE-inhibitor complex has been described for "truly reversible inhibition constants" usually concerning competitive inhibitors. [Cha, Biochem. Pharmacol., 24, 2177-2185 (1975)]. […] Thus, instead of measuring a Ki, a Ki * is calculated which is defined as the ratio of the koff /kon, the rate of reactivation of the enzyme to the rate of inactivation of the enzyme. The values of koff and kon are measured and Ki * is then calculated. The rate of inactivation, kon, of enzymatic activity was determined for the compounds tested by measuring the enzyme activity of an aliquot of the respective enzyme as a function of time after addition of the test compound. […] The rate of inactivation is then equal to [formula] where [I] is the concentration of the inhibiting compound. The reactivation constant, koff, is similarly determined, and the inhibition constant, Ki *, is then calculated as Ki *=koff /kon The values obtained for kon and Ki * for specific substituted saccharin derivatives are shown in TABLE 3, the compounds being identified by the Example numbers above where their preparations are described.

For the molecule `COc1cc(C(C)C)c2c(c1)S(=O)(=O)N(COC(=O)c1cc(C)no1)C2=O` [Example 10, 4-isopropyl-6-methoxy-2-saccharinylmethyl 3-methylisoxazole-5-carboxylate], the kinact/KI amounted to 63000 M⁻¹ s⁻¹ and the Ki is 0.16 nM.

Turning to `COc1cc(C(C)C)c2c(c1)S(=O)(=O)N(COC(=O)c1c(Cl)cnc(OCCN(C)C)c1Cl)C2=O` [Example 5, 4-isopropyl-6-methoxy-2-saccharinylmethyl 3,5-dichloro-2-[2-(dimethylamino)ethoxy]pyridine-4-carboxylate], the kinact/KI came out at 455000 M⁻¹ s⁻¹ and the Ki is 0.022 nM.

Regarding `O=C(OCN1C(=O)c2ccccc2S1(=O)=O)c1ccncc1` [Example 1, 2-saccharinylmethyl pyridine-4-carboxylate], the kinact/KI was determined as 1200 M⁻¹ s⁻¹ and the Ki is 40 nM. Taken in the same sequence, the figures for `COc1cc(C(C)C)c2c(c1)S(=O)(=O)N(COC(=O)c1sccc1Cl)C2=O` [Example 9, 4-isopropyl-6-methoxy-2-saccharinylmethyl 3-chlorothiophene-2-carboxylate] were 131000 M⁻¹ s⁻¹ and 0.076 nM. Consider `O=C(OCN1C(=O)c2ccccc2S1(=O)=O)c1c(Cl)cncc1Cl` [Example 2, 2-saccharinylmethyl 3,5-dichloropyridine-4-carboxylate], for which the kinact/KI was 11000 M⁻¹ s⁻¹ and the Ki is 10 nM.

Consider `COc1cc(C(C)C)c2c(c1)S(=O)(=O)N(COC(=O)c1ccsc1)C2=O` [Example 6, 4-isopropyl-6-methoxy-2-saccharinylmethyl thiophene-3-carboxylate], for which the kinact/KI stood at 47600 M⁻¹ s⁻¹ and the Ki is 0.21 nM. Take `CC(C)c1cccc2c1C(=O)N(COC(=O)c1c(Cl)cncc1Cl)S2(=O)=O` [Example 4, 4-isopropyl-2-saccharinylmethyl 3,5-dichloro-pyridine-4-carboxylate hydrochloride]: the kinact/KI was found to be 2.3e+06 M⁻¹ s⁻¹. Consider `COc1cc(C(C)C)c2c(c1)S(=O)(=O)N(COC(=O)c1c(C)ccnc1C)C2=O` [Example 14, 4-isopropyl-6-methoxy-2-saccharinylmethyl 2,4-dimethylpyridine-3 carboxylate], for which the kinact/KI was found to be 500000 M⁻¹ s⁻¹ and the Ki is 0.02 nM. As for `CC(C)c1cccc2c1C(=O)N(COC(=O)c1c(Cl)cnc(OCCN3CCOCC3)c1Cl)S2(=O)=O` [Example 3, 4-(isopropyl]-2-saccharinylmethyl 3.5-dichloro-2-[2-(4-morpholinyl)ethoxy]pyridine-4-carboxylate hydrochloride], the kinact/KI worked out at 1.5e+06 M⁻¹ s⁻¹ and the Ki was 0.015 nM.

With `COc1cc(C(C)C)c2c(c1)S(=O)(=O)N(COC(=O)C1CCC(=O)N1)C2=O` (centres unmarked) [Example 11, 4-isopropyl-6-methoxy-2-saccharinylmethyl-2-pyrrolidine-5-carboxylate], the kinact/KI was determined as 50000 M⁻¹ s⁻¹ and the Ki was 0.2 nM. Taken in the same sequence, the figures for `COc1cc(C(C)C)c2c(c1)S(=O)(=O)N(COC(=O)c1cccs1)C2=O` [Example 8, 4-isopropyl-6-methoxy-2-saccharinylmethyl thiophene-2-carboxylate] were 100000 M⁻¹ s⁻¹ and 0.1 nM. On to `COc1cc(C(C)C)c2c(c1)S(=O)(=O)N(COC(=O)c1sccc1C)C2=O` [Example 7, 4-isopropyl-6-methoxy-2-saccharinylmethyl 3-methylthiophene-2-carboxylate], for which the kinact/KI was 625000 M⁻¹ s⁻¹ and the Ki was 0.016 nM. Taken in the same sequence, the figures for `COc1cc(C(C)C)c2c(c1)S(=O)(=O)N(COC(=O)c1c(C)noc1C)C2=O` [Example 12, 4-isopropyl-6-methoxy-2-saccharinylmethyl 3,5-dimethylisoxazole-4-carboxylate] were 28000 M⁻¹ s⁻¹ and 0.36 nM. `COc1cc(C(C)C)c2c(c1)S(=O)(=O)N(COC(=O)c1c(C)nn(-c3ccccc3)c1C)C2=O` [Example 13, 4-isopropyl.-6-methoxy-2-saccharinylmethyl 3,5-dimethyl-1-phenylpyrazole-4-carboxylate]: the kinact/KI is 9000 M⁻¹ s⁻¹ and the Ki was 1.1 nM. With `COc1cc(C(C)C)c2c(c1)S(=O)(=O)N(COC(=O)c1c(C)c3cc(Cl)ccc3n1C)C2=O` [Example 15, 4-isopropyl-6-methoxy-2-saccharinylmethyl 1,3-dimethyl-5-chloro-indole-2-carboxylate], the kinact/KI amounted to 6000 M⁻¹ s⁻¹ and the Ki is 1.5 nM.
